Laboratory results published in patent publication US20230117680A1, “CYCLOPHILIN D INHIBITORS AND USES THEREOF” (The Broad Institute, Inc., priority 2019, published 2023).

Tests used:
Format in all cases: biochemical
Conditions in all cases: result in words
[1] = target: CypH (Homo sapiens, UniProt O43447); test: chymotrypsin coupled PPIase assay, CypH inhibition
Protocol: (§1) Following the synthesis of the indicated library members, in vitro inhibition (IC50) assays of these hits were conducted to obtain IC50 inhibitory data. For the IC50 assays, a chymotrypsin coupled PPIase assay using Suc-AAPF-AMC as the peptide substrate was used, whereby isomerization of a peptide substrate Suc-AAPF-AMC from the cis to trans conformation allowed for proteolysis via excess a-chymotrypsin, releasing the C-terminal coumarin fluorophore. […] Other non-inhibitor library members were also checked for binding via SPR, but produced the same profile as the prolyl isomerase assay.
(§2) Subsequently, to determine if the compounds could both access the S2 pocket and display CypD specificity, JOMBtrans and compound 49 were screened against the 10 other cyclophilins with reported prolyl isomerase activity. […] Co-crystal structures of JOMBtrans and 49 were solved with CypD. […] Three further H-bonds with the macrocycle's backbone and CypD were observed along with a cation-n interaction. […] The benzyl group on the piperidine ring altered the conformation of the macrocycle to open up two new hydrogen bonding interactions with CypD. […] This improvement in specificity compared to JOMBtrans signified that more CypD specific compounds can be garnered by derivatization into the S2 pocket.

[2] = target: T1, CypG (Homo sapiens, UniProt Q13427); test: chymotrypsin coupled PPIase assay, CypG inhibition
T1 sequence (Q13427 1-754): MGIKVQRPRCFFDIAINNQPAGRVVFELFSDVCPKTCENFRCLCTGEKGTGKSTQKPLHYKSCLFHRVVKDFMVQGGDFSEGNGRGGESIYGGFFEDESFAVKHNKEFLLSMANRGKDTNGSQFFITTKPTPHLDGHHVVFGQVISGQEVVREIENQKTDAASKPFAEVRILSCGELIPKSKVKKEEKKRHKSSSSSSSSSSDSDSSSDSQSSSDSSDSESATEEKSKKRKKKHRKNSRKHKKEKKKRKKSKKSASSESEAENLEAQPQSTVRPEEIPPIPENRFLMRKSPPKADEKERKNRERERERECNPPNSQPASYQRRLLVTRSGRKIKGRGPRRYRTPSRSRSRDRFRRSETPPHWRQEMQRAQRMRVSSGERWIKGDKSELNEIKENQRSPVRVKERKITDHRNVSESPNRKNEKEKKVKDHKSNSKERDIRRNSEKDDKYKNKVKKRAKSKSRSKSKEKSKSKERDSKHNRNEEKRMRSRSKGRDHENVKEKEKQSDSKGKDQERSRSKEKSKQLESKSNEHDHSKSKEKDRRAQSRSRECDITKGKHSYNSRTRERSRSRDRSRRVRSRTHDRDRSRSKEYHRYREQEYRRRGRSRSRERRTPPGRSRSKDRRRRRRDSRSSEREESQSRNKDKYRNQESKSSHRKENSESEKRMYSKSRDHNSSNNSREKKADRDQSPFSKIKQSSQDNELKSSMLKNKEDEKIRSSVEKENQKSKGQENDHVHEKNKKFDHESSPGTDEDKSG
Protocol: as §1, §2

[3] = target: T2, NKTR (Homo sapiens, UniProt P30414); test: chymotrypsin coupled PPIase assay, NKTR inhibition
T2 sequence (P30414 1-1462): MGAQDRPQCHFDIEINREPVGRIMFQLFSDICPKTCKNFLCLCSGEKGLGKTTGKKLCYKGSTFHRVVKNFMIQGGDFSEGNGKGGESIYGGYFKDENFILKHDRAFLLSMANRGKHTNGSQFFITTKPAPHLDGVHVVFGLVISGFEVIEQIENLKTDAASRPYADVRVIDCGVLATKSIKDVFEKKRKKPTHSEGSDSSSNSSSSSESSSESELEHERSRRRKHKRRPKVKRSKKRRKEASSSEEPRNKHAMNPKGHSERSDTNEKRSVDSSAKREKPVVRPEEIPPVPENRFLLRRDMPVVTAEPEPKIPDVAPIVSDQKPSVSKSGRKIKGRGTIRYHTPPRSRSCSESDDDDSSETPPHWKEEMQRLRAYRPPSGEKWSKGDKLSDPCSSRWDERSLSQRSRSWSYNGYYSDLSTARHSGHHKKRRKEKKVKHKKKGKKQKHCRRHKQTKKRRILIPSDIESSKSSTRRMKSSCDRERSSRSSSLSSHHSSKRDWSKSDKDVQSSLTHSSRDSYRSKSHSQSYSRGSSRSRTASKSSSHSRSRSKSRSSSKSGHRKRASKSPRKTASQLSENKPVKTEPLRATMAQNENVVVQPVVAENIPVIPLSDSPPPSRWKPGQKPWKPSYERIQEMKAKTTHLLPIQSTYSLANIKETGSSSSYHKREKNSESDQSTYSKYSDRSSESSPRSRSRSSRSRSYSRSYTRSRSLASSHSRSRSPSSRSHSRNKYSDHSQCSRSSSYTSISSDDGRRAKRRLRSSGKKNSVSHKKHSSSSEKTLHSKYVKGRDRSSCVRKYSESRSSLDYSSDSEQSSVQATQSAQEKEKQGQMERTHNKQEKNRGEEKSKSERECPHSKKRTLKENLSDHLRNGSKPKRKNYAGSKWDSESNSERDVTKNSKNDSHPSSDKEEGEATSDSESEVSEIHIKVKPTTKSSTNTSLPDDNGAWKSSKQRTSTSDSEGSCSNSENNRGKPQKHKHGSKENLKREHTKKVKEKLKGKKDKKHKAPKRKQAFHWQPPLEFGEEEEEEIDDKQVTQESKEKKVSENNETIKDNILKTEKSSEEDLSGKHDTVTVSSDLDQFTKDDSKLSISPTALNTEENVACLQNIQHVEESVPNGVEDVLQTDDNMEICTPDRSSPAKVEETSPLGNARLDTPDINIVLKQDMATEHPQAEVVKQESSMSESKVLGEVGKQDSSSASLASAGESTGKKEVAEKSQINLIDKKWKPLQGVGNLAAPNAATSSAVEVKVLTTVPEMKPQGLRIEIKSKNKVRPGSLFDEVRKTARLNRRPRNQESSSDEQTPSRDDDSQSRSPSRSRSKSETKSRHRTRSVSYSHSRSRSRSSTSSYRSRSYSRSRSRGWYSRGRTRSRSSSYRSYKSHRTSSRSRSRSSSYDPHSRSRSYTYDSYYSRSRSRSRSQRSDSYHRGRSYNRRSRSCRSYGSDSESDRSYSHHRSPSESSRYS
Protocol: as §1, §2

Chain of CypH (O43447 whole entry): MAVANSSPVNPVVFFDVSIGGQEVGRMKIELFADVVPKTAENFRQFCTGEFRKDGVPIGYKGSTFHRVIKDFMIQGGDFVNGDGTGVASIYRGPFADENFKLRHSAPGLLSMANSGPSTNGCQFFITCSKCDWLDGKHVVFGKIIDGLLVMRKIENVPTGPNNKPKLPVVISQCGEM

SMILES: NCCOCCNC(=O)[C@@H]1CCNC(=O)/C=C/C(=O)N2CCC[C@H](C2)C(=O)N[C@@H](Cc2ccc(C(=O)c3ccccc3)cc2)C(=O)NCc2ccccc2CC(=O)N1 [compound 27]
- inhibition of CypH [1]: Almost complete ablation of inhibition profiles
- inhibition of CypG [2]: Almost complete ablation of inhibition profiles
- inhibition of NKTR [3]: Almost complete ablation of inhibition profiles
